Laboratory results: US20070003525A1, “Hydrogel compositions comprising nucleus pulposus tissue” (priority 2003, published 2007)

Tests used:
Type in all cases: cell-based
[1] = test system: Sheep nucleus chondrocytes; test: MTT cytotoxicity of the photo-initiating system
Experimental: Sheep nucleus chondrocytes were seeded in a 12-well plate at 20,000 cells/well and incubated with TCM. After allowing cells to adhere for over 48 hours, spent media was replaced with TCM containing 0 or 1000 ppm Irgacure 2959. SNCs were then exposed to long wave ultraviolet light at 365 nm wavelength for different lengths of time, followed by incubation at 37° C. MTT assay was performed at 1, 5, and 24 hours post UV exposure to assess viability of cells. The principle of the assay is similar to the MTS assay mentioned before, except that a different tetrazolium compound is used in this method.

[2] = test system: Sheep nucleus cells (SNCs)
Experimental: The monomer solution was poured into molds and photo-polymerized using long-wave ultraviolet light at 365 nm wavelength. Polymerized hydrogels were placed into tissue culture inserts which were then placed above seeded SNCs. Cytotoxicity of unpolymerized matrix was also determined, by including inserts containing unpolymerized monomer solution. SNC seeded wells containing empty inserts served as controls. SNCs and inserts were completely immersed in TCM. […] The MTS assay measures viability of cells by a calorimetric method, wherein the MTS tetrazolium compound is bio reduced by cells into a colored formazan product which is soluble in TCM. The conversion is accomplished by dehydrogenase enzymes present in metabolically active cells.

[3] = test system: baboon intervertebral disc nucleus pulposus cells; test: Alcian blue assay of proteoglycan synthesis, baboon cells; settings: 8 days, 10 ng/ml
Experimental: (§1) Human intervertebral disc cells from Example 9 were seeded and grown in 24 well plates in TCM in the presence or absence of exogenous growth factors. At various time points, TCM was aspirated out from the wells and the wells washed 3 times with PBS. The cells were then fixed with 4% paraformaldehyde (pH 7.4) for 10 min. The fixed cells were washed 2 times with PBS and then stained overnight with 0.5% Alcian blue in 0.1N hydrochloric acid (pH 1.5). After overnight staining, excess stain was rinsed out with 3 rinses of PBS. The remaining Alcian blue stain (bound to proteoglycans) was dissolved overnight into 6 M guanidine hydrochloride and the absorbance at 630 nm was measured using a spectrophotometer, providing an indication of the induction of matrix production by exogenous growth factors in human nucleus pulposus cells.
The foregoing procedure was also applied to sheep and baboon intervertebral nucleus pulposus cells from Example 9 to obtain an indication of the induction of matrix production by exogenous growth factors in sheep and baboon nucleus pulposus cells.
TGF-β1 and BP were tested for their effects on stimulation of proteoglycan synthesis in baboon nucleus cells. […] The cells were fixed after 4 and 8 days of continuous exposure to growth factors, and proteoglycan synthesis was detected by the Alcian blue assay as described in Example 10.

[4] = test system: sheep intervertebral disc nucleus pulposus cells; test: Alcian blue assay of proteoglycan synthesis, sheep cells; settings: 10 ng/ml
Experimental: as §1, with “cells. […]” for “cells.”
Transforming growth factor-β1 (TGF-β1) and a mixture of bone-derived protein growth factors (BP) produced according to U.S. Pat. Nos. 5,290,763, 5,371,191 and 5,563,124, were tested for their effects on stimulation of proteoglycan synthesis in ovine nucleus pulposus cells. […] At these time points, the cells were fixed and the amount of proteoglycan synthesis was measured by the Alcian blue assay as described in Example 10.

[5] = test system: human intervertebral disc nucleus pulposus cells; test: Alcian blue assay of proteoglycan synthesis, human cells; settings: 10 ng/ml
Experimental: as §1
TGF-β1 and BP were tested for their effects on stimulation of proteoglycan synthesis in human nucleus cells. Human intervertebral disc nucleus pulposus cells obtained from Disc L5-S1 of a patient were cultured as described in Examples 8 and 9 and seeded into 24-well plates. After the cells adhered to the well surface, multiple dilutions of different growth factors were added. The concentrations of growth factors tested were 10 ng/ml TGF-β1, and 10 and 20 μg/ml of BP. The dilutions were prepared in TCM. The cells were fixed after 5 and 8 days of continuous exposure to growth factors and proteoglycans synthesized were detected by the Alcian blue assay as described in Example 10.
A second experiment to test the effects of TGF-β1 and BP on proteoglycan synthesis was performed on a different human patient from that described in Example 14. Human intervertebral disc cells obtained from another patient were cultured as described in Examples 8 and 9 and seeded into 24 well plates. Growth factors were added after the cells were allowed to adhere overnight. […] After 6 and 9 days the cells were fixed and the amount of proteoglycans synthesized was measured by the Alcian blue assay as described in Example 10.

[6] = test system: sheep intervertebral disc nucleus pulposus cells; test: ELISA of Type II collagen and chondroitin-6-sulfate production; settings: 7 days, 10 ng/ml
Experimental: To detect specific antigenic epitopes in the synthesized matrix, sheep intervertebral nucleus pulposus cells from Example 9, seeded and grown in monolayer, were fixed in 2% glutaraldehyde for 1 hour at room temperature. The fixed cells were washed 3 times with TBS for 5 min. each. To block non-specific antibody binding, the cells were incubated in a solution of Tris buffered saline (TBS) containing 1 mM ethylene-diamine-tetraacetic acid (EDTA), 0.05% Tween-20™, and 0.25% bovine serum albumin for 1 hour. The blocking step was followed by 3 washes with TBS for 5 min. each. The cells were incubated with the primary antibody at room temperature for 2.5 hours, and the excess primary antibody was removed by 3 washes with TBS for 5 min. each. A second incubation with blocking buffer was performed for 10 min., followed by 3 washes with TBS. […] The bound primary and secondary antibodies were detected by addition of an enzyme-specific substrate which produced a colored reaction. The colorimetric measurement was performed using a spectrophotometer, providing a quantitative measure of the presence of the bound antibodies. […]
After incubation with growth factors for 7 days, cell cultures were fixed in 2% glutaraldehyde and the quantity of Type II collagen and chondroitin-6-sulfate produced in the cell cultures was detected by ELISA according to the procedure described in Example 11. […]

Molecule	cytotoxicity (MTT) ([1]; 1000 ppm in TCM, by itself (no free radical production), FIG. 29: 24 hours post-UV)	cell death by free radicals from UV light with Irgacure 2959 (MTT) ([1]; 1000 ppm plus 365 nm UV for different lengths of time)	cytotoxicity (MTS, absorbance at 570 nm) [2]	increase in proteoglycan synthesis over the control [3]	increase in proteoglycan synthesis above 0.5% serum control ([4]; 7 day)	increase in proteoglycan synthesis above 0.5% serum control ([4]; 10 day)	increase in Alcian blue staining over the control ([5]; Example 14 patient, 8 days)	more proteoglycans than control ([5]; Example 15 patient, 6 days)	increased proteoglycan production over controls ([5]; Example 15 patient, 9 days)	increased production of Type II collagen over controls [6]	increased production of chondroitin-6-sulfate over controls [6]
CC(C)(O)C(=O)c1ccc(OCCO)cc1 [Irgacure 2959]	not significantly cytotoxic	significant only at 5 and 10 min of UV exposure	cytocompatible								
C=CN1CCCCCC1=O [vinyl caprolactam]			cytocompatible								
Transforming growth factor-β1 [TGF-β1]				21%	not significant	52%	42%	54%	74%	115%	800%
